The source of these data is ChEMBL document CHEMBL1147942, “Dual M3 antagonists-PDE4 inhibitors. Part 2: Synthesis and SAR of 3-substituted azetidinyl derivatives” (Bioorg Med Chem Lett, 2007).

The target of series [1] is T1, Phosphodiesterase 4 (Homo sapiens, UniProt P27815+Q08499+Q07343+Q08493). Description: Inhibition of PDE4 in U937 cells. Format: cell-based. Particulars: u-937.
Series [2] can be described thus: Dissociation constant, pKa of the compound. The format is physicochemical.
Series [3] deals with Muscarinic acetylcholine receptor M3 (Homo sapiens, UniProt P20309). Put plainly: Displacement of [3H]N-methylscopolamine from human recombinant M3 muscarinic receptor expressed in CHO cell membrane. The format is cell membranes. For orientation: Loss of bound radioactivity is the signal in a displacement assay; it reports binding, not function.
For series [4], the target named is Muscarinic acetylcholine receptor M3 (Cavia porcellus, UniProt Q8VH26). Description: Activity at M3 muscarinic receptor in guinea pig assessed as effect on carbachol-induced trachea contraction.
In series [5] the target is T1, Phosphodiesterase 4. Put plainly: Inhibition of PDE4 in U937 cells at high-affinity rolipram binding state. Particulars: u-937. Format: cell-based.
A short description of series [6]: Inhibition of fMLP-induced elastase release from human PMN cells. Format: functional, cell-based.
The species named for series [7] is Mus musculus. Description: Inhibition of mKC cells in BALB/c mouse at 10 mg/ml, nose-only aerosol for 15 mins. The format is functional, organism-based.
For another series, the species on record is Cavia porcellus. Particulars: Trachea.
Series [8] is filed under the species Mus musculus. Description: Inhibition of PMN cells in BALB/c mouse at 10 mg/ml, nose-only aerosol for 15 mins. The format is functional, organism-based.
Series [9] is filed under the species Mus musculus. Description: Inhibition of BALF cells in BALB/c mouse at 10 mg/ml, nose-only aerosol for 15 mins. The format is functional, organism-based.
Series [10] addresses T1, Phosphodiesterase 4. Description: Inhibition of PDE4 in U937 cells at 10 uM. The format is cell-based. To be noted: U-937.

Calls of active or inactive are those of the source. No cut-off for these calls is given here.

Sequence of Muscarinic acetylcholine receptor M3 (Homo sapiens, UniProt P20309) (P20309 whole entry): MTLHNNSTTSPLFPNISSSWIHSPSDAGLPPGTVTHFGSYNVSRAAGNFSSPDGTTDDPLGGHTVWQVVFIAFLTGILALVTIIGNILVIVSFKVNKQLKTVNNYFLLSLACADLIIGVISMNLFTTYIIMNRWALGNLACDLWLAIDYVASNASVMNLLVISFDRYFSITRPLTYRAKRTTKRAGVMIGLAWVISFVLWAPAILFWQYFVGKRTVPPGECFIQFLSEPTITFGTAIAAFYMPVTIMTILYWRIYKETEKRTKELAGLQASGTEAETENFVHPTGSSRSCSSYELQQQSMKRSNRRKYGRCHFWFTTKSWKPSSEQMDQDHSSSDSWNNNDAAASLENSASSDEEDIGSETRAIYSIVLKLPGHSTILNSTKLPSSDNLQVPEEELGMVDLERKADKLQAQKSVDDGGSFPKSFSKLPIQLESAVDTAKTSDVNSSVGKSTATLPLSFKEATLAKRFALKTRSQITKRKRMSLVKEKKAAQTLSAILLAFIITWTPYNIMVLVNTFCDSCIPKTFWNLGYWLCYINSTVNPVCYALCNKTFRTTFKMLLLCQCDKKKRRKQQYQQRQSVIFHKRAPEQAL
Sequence of Muscarinic acetylcholine receptor M3 (Cavia porcellus, UniProt Q8VH26) (Q8VH26 whole entry): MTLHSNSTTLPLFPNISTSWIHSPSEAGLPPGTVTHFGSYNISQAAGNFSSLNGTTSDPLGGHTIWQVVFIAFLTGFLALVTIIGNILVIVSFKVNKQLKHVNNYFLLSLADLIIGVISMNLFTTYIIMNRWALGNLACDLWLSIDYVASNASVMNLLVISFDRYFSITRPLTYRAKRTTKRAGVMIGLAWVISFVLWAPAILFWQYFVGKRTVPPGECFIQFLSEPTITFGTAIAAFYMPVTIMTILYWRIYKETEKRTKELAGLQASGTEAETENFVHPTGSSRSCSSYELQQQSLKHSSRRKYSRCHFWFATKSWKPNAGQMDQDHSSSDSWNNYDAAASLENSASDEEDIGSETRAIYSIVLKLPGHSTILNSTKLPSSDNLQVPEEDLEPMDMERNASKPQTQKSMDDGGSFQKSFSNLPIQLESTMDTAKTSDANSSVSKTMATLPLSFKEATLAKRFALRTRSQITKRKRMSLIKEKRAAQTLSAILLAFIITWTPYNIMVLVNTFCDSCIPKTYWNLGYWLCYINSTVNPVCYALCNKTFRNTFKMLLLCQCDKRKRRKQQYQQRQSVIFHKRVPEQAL
Description for Cavia porcellus: Activity at PDE4 in guinea pig assessed as effect on LTD4-induced trachea contraction

Take `CC1CN(c2cc(N3CCCCCC3)nc(C3CC3)n2)C1`: at Phosphodiesterase 4 [1], the IC50 came out at 2000 nM. The molecule further registered a pKa in [2] of 7.5. In addition, in series [3], the Ki was 13 nM.

`Cc1c(N2CCCCCC2)nc(C2CC2)nc1N1CC(=O)C1` yielded an IC50 on Phosphodiesterase 4 [1] of 500 nM. In series [2], the pKa was 6.4. The Ki in [3] was 631 nM.

Turning to `COC1CN(c2nc(C3CC3)nc(N3CCCCCC3)c2C)C1`, the IC50 against Phosphodiesterase 4 [1] was 4000 nM. Besides, the pKa in [2] was 6.8. Besides, the Ki in series [3] turned out to be 40 nM.

Take `Cc1c(N2CCCCCC2)nc(C2CC2)nc1N1CCCC1`: the IC50 at Phosphodiesterase 4 [1] came to 3200 nM. Further, the Ki in series [3] was determined as 1.3 nM.

For the molecule `Cc1c(N2CCCCCC2)nc(C2CC2)nc1N1CCC1`, on Phosphodiesterase 4 [1], the IC50 was determined as 320 nM and the “Log IC50” value is given as -6.6. Also, the pKa in series [2] was 7.1. Besides, the Kb in series [4] was 1000 nM. In addition, the Ki in series [3] came out at 16 nM. Further, the “Log Ki” value on Phosphodiesterase 4 [5] is listed as -5.3. In series [6], this molecule displayed an IC50 of 190 nM.

`Cc1c(N2CCCCCC2)nc(C2CC2)nc1N1CC(C)(C)C1`: the IC50 at Phosphodiesterase 4 [1] turned out to be 5000 nM. Also, in series [2], the pKa was determined as 7. The Ki in [3] worked out at 32 nM.

In turn, `FC1CN(c2cc(N3CCCCCC3)nc(C3CC3)n2)C1` returned an IC50 against Phosphodiesterase 4 [1] of 200 nM. In [2], this molecule returned a pKa of 6.9. In series [3], the Ki was determined as 501 nM.

Turning to `Cc1c(N2CCCCCC2)nc(C2CC2)nc1N1CC(O)C1`, at Phosphodiesterase 4 [1], the IC50 is 630 nM. In series [2], this molecule came in with a pKa of 7. Further, the Ki in [3] stood at 158 nM.

Consider `Cc1c(N2CCCCCC2)nc(C2CC2)nc1N1CC(C#N)C1`, for which the IC50 against Phosphodiesterase 4 [1] came to 1000 nM. This molecule yielded a pKa in series [2] of 6.4. Further, in [3], the Ki was found to be 794 nM.

Consider `Cc1c(NC2CC2)nc(C2CC2)nc1N1CCCCCC1`, for which the Activity result in the series filed under Mus musculus [7], in the series listed under Mus musculus [8] and in the series filed under Mus musculus [9] was “Dose-dependent effect” throughout. In the series filed under Cavia porcellus, this molecule displayed a pD2 of 6.1.

Consider `Cc1c(N2CCCCCC2)nc(C2CC2)nc1N1CC(F)C1`, for which the 50% inhibitory concentration (IC50) against Phosphodiesterase 4 [1] was found to be 79 nM; in series [6], 380 nM. The “Log IC50” value on Phosphodiesterase 4 [1] is -7.3. This molecule also had a pKa in series [2] of 6.6. Further, the pD2 in the series filed under Cavia porcellus was found to be 7.4. For the same molecule, the Ki in series [3] came to 200 nM. Moreover, the “Log Ki” value on Phosphodiesterase 4 [5] is given as -6.

As for `Cc1c(N2CCCCCC2)nc(C2CC2)nc1N1CCCCCC1`, the result at Phosphodiesterase 4 [10] was inactive. Besides, the inhibitory constant (Ki) in [3] is 40 nM.

Regarding `Cc1c(N2CCCCCC2)nc(C2CC2)nc1N1CC(C)C1`, the IC50 against Phosphodiesterase 4 [1] was found to be 790 nM. Moreover, the pKa in [2] was 8. The Ki in series [3] was determined as 20 nM.

Consider `c1c(N2CCCCCC2)nc(C2CC2)nc1N1CCC1`, for which the IC50 on Phosphodiesterase 4 [1] was 790 nM. This molecule returned a pKa in [2] of 7.4. In series [3], the Ki amounted to 79 nM.

On to `Cc1c(N2CCCCCC2)nc(C2CC2)nc1N1CCCCC1`, for which the result at Phosphodiesterase 4 [10] was inactive. Besides, in series [3], the Ki is 79 nM.

One may read the IC50 as the point on the concentration scale where inhibition reaches its midpoint. Higher therefore signals weaker potency. Usually pKa stands for the pH at which an ionisable group is half protonated. Low readings indicate a stronger acid or weaker base, high ones a weaker acid or stronger base. As a reminder, the Ki is the dissociation constant of the complex between target and ligand, obtained from inhibition or displacement.
